In patent US20230114728A1 (Venatorx Pharmaceuticals, Inc., priority 2019, published 2023):
Converted amounts (≈) assume the structure as drawn. Where two headings read alike, the source gives them in different places.

How the values were obtained:
Format in all cases: cell-based
E. coli AG100A = test: Broth microdilution MIC in CAMHB; conditions: Escherichia coli, read-out: Minimum Inhibitory Concentration, E. coli AG100A
How it was run: (§1)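 CLSI broth microdilution in CAMHB: 2-fold compound dilutions inoculated at 2-8×10^5 CFU/mL from 3-5 h log-phase cultures. Incubated at 37 °C for 16-20 h (Enterobacteriaceae, Pseudomonas); MIC read visually as lowest concentration without growth. Strains include hyper-permeable and efflux-deficient mutants.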

E. coli D22 = test: Broth microdilution MIC in CAMHB; conditions: Escherichia coli; E. coli D22 (hyper-permeable); MHB; read-out: Minimum Inhibitory Concentration, E. coli D22
How it was run: as §1

[1] = tested on: K. pneumoniae 848844 producing SHV-11 and KPC-2; test: Broth microdilution MIC in CAMHB; conditions: Klebsiella pneumoniae, read-out: Minimum Inhibitory Concentration, K. pneumoniae 848844
How it was run: as §1

[2] = tested on: K. pneumoniae SI-117 producing VIM-1; test: Broth microdilution MIC in CAMHB; conditions: Klebsiella pneumoniae, read-out: Minimum Inhibitory Concentration, K. pneumoniae SI-117
How it was run: as §1

[3] = tested on: P. aeruginosa (ΔmexAB-oprM); test: Broth microdilution MIC in CAMHB; conditions: Pseudomonas aeruginosa, read-out: Minimum Inhibitory Concentration, P. aeruginosa ΔmexAB-OprM
How it was run: as §1

[4] = tested on: N. gonorrhoeae ATCC 49226; test: Liquid broth MIC in Fastidious broth; conditions: Neisseria gonorrhoeae, ATCC49226, Fastidious broth
How it was run: (§2)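 Colonies were swabbed from chocolate agar after 24 h growth and standardised by optical density at 600 nm. Compounds were serially diluted twofold in Fastidious broth, and bacteria added to give 5×10^5 CFU/mL. After about 24 h at 36 °C in 5% CO2, the lowest concentration allowing under 10% growth was taken as MIC.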

N. gonorrhoeae FA1090 = test: Liquid broth MIC in Fastidious broth; conditions: Neisseria gonorrhoeae, Fastidious broth
How it was run: as §2

N. gonorrhoeae H041 = test: Liquid broth MIC in Fastidious broth; conditions: Neisseria gonorrhoeae
How it was run: (§3)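 Broth microdilution in Fastidious broth with 2-fold compound series; inoculum from 24 h chocolate agar colonies, 5×10^5 CFU/mL start. Incubated ~24 hours at 36° C, 5% CO2. MIC read visually as lowest concentration giving <10% growth versus full-growth wells; strains carry mosaic PBP2.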

N. gonorrhoeae WHO G = test: Liquid broth MIC in Fastidious broth; conditions: Neisseria gonorrhoeae, Fastidious broth
How it was run: as §2

N. gonorrhoeae WHO K = test: Liquid broth MIC in Fastidious broth; conditions: Neisseria gonorrhoeae
How it was run: as §3

N. gonorrhoeae WHO L = test: Liquid broth MIC in Fastidious broth; conditions: Neisseria gonorrhoeae, Fastidious broth
How it was run: as §2

N. gonorrhoeae WHO Q = test: Liquid broth MIC in Fastidious broth; conditions: Neisseria gonorrhoeae
How it was run: as §3

N. gonorrhoeae WHO Z = test: Liquid broth MIC in Fastidious broth; conditions: Neisseria gonorrhoeae
How it was run: as §3

[5] = N. gonorrhoeae strain ATCC 49226, read-out: Minimum Inhibitory Concentration, N. gonorrhoeae ATCC 49226
[6] = N. gonorrhoeae strain FA1090, read-out: Minimum Inhibitory Concentration, N. gonorrhoeae FA1090
[7] = H041, read-out: Minimum Inhibitory Concentration, N. gonorrhoeae H041
[8] = N. gonorrhoeae strain WHO G, read-out: Minimum Inhibitory Concentration, N. gonorrhoeae WHO G
[9] = read-out: Minimum Inhibitory Concentration, N. gonorrhoeae WHO K
[10] = N. gonorrhoeae strain WHO L, read-out: Minimum Inhibitory Concentration, N. gonorrhoeae WHO L
[11] = read-out: Minimum Inhibitory Concentration, N. gonorrhoeae WHO Q
[12] = read-out: Minimum Inhibitory Concentration, N. gonorrhoeae WHO Z
[13] = N. gonorrhoeae ATCC 49226, read-out: Minimum Inhibitory Concentration, ATCC 49226
[14] = N. gonorrhoeae FA1090, read-out: Minimum Inhibitory Concentration, FA1090
[15] = H041, read-out: Minimum Inhibitory Concentration, H041
[16] = N. gonorrhoeae WHO G, read-out: Minimum Inhibitory Concentration, WHO G
[17] = read-out: Minimum Inhibitory Concentration, WHO K
[18] = N. gonorrhoeae WHO L, read-out: Minimum Inhibitory Concentration, WHO L
[19] = read-out: Minimum Inhibitory Concentration, WHO Q
[20] = read-out: Minimum Inhibitory Concentration, WHO Z

## NCCN1CCN(C(=O)N[C@@H](C(=O)N[C@H]2Cc3cccc(C(=O)O)c3OB2O)c2c(O)cc(O)cc2F)C(=O)C1=O (single isomer, unassigned) [Example 194]
E. coli AG100A
  MIC: 2 to 4 mg/L (≈ 3.49 to 6.98 µM)
E. coli D22
  MIC: 2 to 4 mg/L (≈ 3.49 to 6.98 µM)
[1]
  MIC: 32 to 64 mg/L (≈ 55.8 to 112 µM)
[2]
  MIC: 32 to 64 mg/L (≈ 55.8 to 112 µM)
[3]
  MIC: 8 to 16 mg/L (≈ 14 to 27.9 µM)
[4]; [5]
  MIC: 16 to 32 mg/L (≈ 27.9 to 55.8 µM)
N. gonorrhoeae FA1090; [6]
  MIC: 1 to 2 mg/L (≈ 1.74 to 3.49 µM)
N. gonorrhoeae H041; [7]
  MIC: > 64 mg/L
N. gonorrhoeae WHO G; [8]
  MIC: 4 to 8 mg/L (≈ 6.98 to 14 µM)
N. gonorrhoeae WHO K; [9]
  MIC: > 64 mg/L
N. gonorrhoeae WHO L; [10]
  MIC: > 64 mg/L
N. gonorrhoeae WHO Q; [11]
  MIC: > 64 mg/L
N. gonorrhoeae WHO Z; [12]
  MIC: > 64 mg/L

## NCCN1CCN(C(=O)N[C@H](C(=O)N[C@H]2Cc3cccc(C(=O)O)c3OB2O)c2ccc(O)c(Cl)c2F)C(=O)C1=O (single isomer, unassigned) [Example 187]
E. coli AG100A
  MIC: 8 to 16 mg/L (≈ 13.5 to 27 µM)
E. coli D22
  MIC: 32 to 64 mg/L (≈ 54.1 to 108 µM)
[1]
  MIC: > 128 mg/L
[2]
  MIC: > 128 mg/L
[3]
  MIC: 32 to 64 mg/L (≈ 54.1 to 108 µM)
[4]; [5]
  MIC: > 64 mg/L
N. gonorrhoeae FA1090; [6]
  MIC: 4 to 8 mg/L (≈ 6.76 to 13.5 µM)
N. gonorrhoeae H041; [7]
  MIC: > 64 mg/L
N. gonorrhoeae WHO G; [8]
  MIC: > 64 mg/L
N. gonorrhoeae WHO K; [9]
  MIC: > 64 mg/L
N. gonorrhoeae WHO L; [10]
  MIC: > 64 mg/L
N. gonorrhoeae WHO Q; [11]
  MIC: > 64 mg/L
N. gonorrhoeae WHO Z; [12]
  MIC: > 64 mg/L

## CCN1CCN(C(=O)NC(C(=O)N[C@H]2Cc3cccc(C(=O)O)c3OB2O)c2cc(NS(N)(=O)=O)ccc2F)C(=O)C1=O (stereo partly drawn) [Example 197, (3R)-3-(2-(4-ethyl-2,3-dioxopiperazine-1-carboxamido)-2-(2-fluoro-5-(sulfamoylamino)phenyl)acetamido)-2-hydroxy-3,4-dihydro-2H-benzo[e][1,2]oxaborinine-8-carboxylic acid]
E. coli AG100A
  MIC: 0.5 to 1 mg/L (≈ 0.806 to 1.61 µM)
E. coli D22
  MIC: 0.5 to 1 mg/L (≈ 0.806 to 1.61 µM)
[1]
  MIC: > 128 mg/L
[2]
  MIC: 32 to 64 mg/L (≈ 51.6 to 103 µM)
[3]
  MIC: 2 to 4 mg/L (≈ 3.22 to 6.45 µM)
[4]; [5]
  MIC: 16 to 32 mg/L (≈ 25.8 to 51.6 µM)
N. gonorrhoeae FA1090; [6]
  MIC: 0.25 to 0.5 mg/L (≈ 0.403 to 0.806 µM)
N. gonorrhoeae H041; [7]
  MIC: 16 to 32 mg/L (≈ 25.8 to 51.6 µM)
N. gonorrhoeae WHO G; [8]
  MIC: 4 to 8 mg/L (≈ 6.45 to 12.9 µM)
N. gonorrhoeae WHO K; [9]
  MIC: 16 to 32 mg/L (≈ 25.8 to 51.6 µM)
N. gonorrhoeae WHO L; [10]
  MIC: > 64 mg/L
N. gonorrhoeae WHO Q; [11]
  MIC: 16 to 32 mg/L (≈ 25.8 to 51.6 µM)
N. gonorrhoeae WHO Z; [12]
  MIC: 16 to 32 mg/L (≈ 25.8 to 51.6 µM)

## CCN1CCN(C(=O)NC(C(=O)N[C@H]2Cc3cccc(C(=O)O)c3OB2O)c2c(F)cc(NC(=O)NC)cc2F)C(=O)C1=O (stereo partly drawn) [Example 213, (3R)-3-(2-(2,6-difluoro-4-(3-methylureido)phenyl)-2-(4-ethyl-2,3-dioxopiperazine-1-carboxamido)acetamido)-2-hydroxy-3,4-dihydro-2H-benzo[e][1,2]oxaborinine-8-carboxylic acid]
E. coli AG100A
  MIC: 2 to 4 mg/L (≈ 3.24 to 6.49 µM)
E. coli D22
  MIC: 2 to 4 mg/L (≈ 3.24 to 6.49 µM)
[1]
  MIC: > 128 mg/L
[2]
  MIC: > 128 mg/L
[3]
  MIC: 2 to 4 mg/L (≈ 3.24 to 6.49 µM)
[4]; [13]
  MIC: 4 to 8 mg/L (≈ 6.49 to 13 µM)
N. gonorrhoeae FA1090; [14]
  MIC: < 0.125 mg/L
N. gonorrhoeae H041; [15]
  MIC: > 64 mg/L
N. gonorrhoeae WHO G; [16]
  MIC: 1 to 2 mg/L (≈ 1.62 to 3.24 µM)
N. gonorrhoeae WHO K; [17]
  MIC: > 64 mg/L
N. gonorrhoeae WHO L; [18]
  MIC: > 64 mg/L
N. gonorrhoeae WHO Q; [19]
  MIC: > 64 mg/L
N. gonorrhoeae WHO Z; [20]
  MIC: 16 to 32 mg/L (≈ 26 to 51.9 µM)

## O=C(O)c1cccc2c1OB(O)[C@@H](NC(=O)C(NC(=O)N1CCN(C3CNC3)C(=O)C1=O)c1c(F)cc(O)cc1F)C2 (stereo partly drawn) [Example 212, (3R)-3-(2-(4-(azetidin-3-yl)-2,3-dioxopiperazine-1-carboxamido)-2-(2,6-difluoro-4-hydroxyphenyl)acetamido)-2-hydroxy-3,4-dihydro-2H-benzo[e][1,2]oxaborinine-8-carboxylic acid]
E. coli AG100A
  MIC: 2 to 4 mg/L (≈ 3.41 to 6.81 µM)
E. coli D22
  MIC: 2 to 4 mg/L (≈ 3.41 to 6.81 µM)
[1]
  MIC: 32 to 64 mg/L (≈ 54.5 to 109 µM)
[2]
  MIC: 32 to 64 mg/L (≈ 54.5 to 109 µM)
[3]
  MIC: 8 to 16 mg/L (≈ 13.6 to 27.2 µM)
[4]; [13]
  MIC: 16 to 32 mg/L (≈ 27.2 to 54.5 µM)
N. gonorrhoeae FA1090; [14]
  MIC: 1 to 2 mg/L (≈ 1.7 to 3.41 µM)
N. gonorrhoeae H041; [15]
  MIC: > 64 mg/L
N. gonorrhoeae WHO G; [16]
  MIC: 16 to 32 mg/L (≈ 27.2 to 54.5 µM)
N. gonorrhoeae WHO K; [17]
  MIC: > 64 mg/L
N. gonorrhoeae WHO L; [18]
  MIC: > 64 mg/L
N. gonorrhoeae WHO Q; [19]
  MIC: > 64 mg/L
N. gonorrhoeae WHO Z; [20]
  MIC: > 64 mg/L

## CCN1CCN(C(=O)N[C@H](C(=O)N[C@H]2Cc3ccc(F)c(C(=O)O)c3OB2O)c2ccc(O)c(O)c2)C(=O)C1=O [Example 210, (R)-3-((S)-2-(3,4-dihydroxyphenyl)-2-(4-ethyl-2,3-dioxopiperazine-1-carboxamido)acetamido)-7-fluoro-2-hydroxy-3,4-dihydro-2H-benzo[e][1,2]oxaborinine-8-carboxylic acid]
[4]; [13]
  MIC: > 64 mg/L
N. gonorrhoeae FA1090; [14]
  MIC: > 64 mg/L
N. gonorrhoeae H041; [15]
  MIC: > 64 mg/L
N. gonorrhoeae WHO G; [16]
  MIC: > 64 mg/L
N. gonorrhoeae WHO K; [17]
  MIC: > 64 mg/L
N. gonorrhoeae WHO L; [18]
  MIC: > 64 mg/L
N. gonorrhoeae WHO Q; [19]
  MIC: > 64 mg/L
N. gonorrhoeae WHO Z; [20]
  MIC: > 64 mg/L
